Reference: patent publication US20120171305A1, “Response Prediction in Cancer Treatment Involving p53 Adapted Cancer Therapy” (priority 2011, published 2012)

System: stage III colon cancer
Experiment: Studie 90: fluorouracil-based adjuvant chemotherapy, survival by TP53 genotype
Format: in vivo, human
Conditions: for five-years survival rate: low risk patients (1-3 positive lymph nodes)
Text: Tumor specimens were collected from 411 patients enrolled in a randomised trial of fluorouracil-based adjuvant chemotherapy for stage III colon cancer patients.
Fluorouracil acts according to pathway 1 and is supposed to need a normal p53 for induction of apoptosis. The p53 gene status could be assessed in 389 tumors through standardized, gene specific sequencing of the TP53 gene.

In the case of `O=c1[nH]cc(F)c(=O)[nH]1` [fluorouracil], the five-year survival (entire stage IIIA cohort) is reported as 84.5%, the “interaction between survival and TP53 genotype” value (high-risk stage III patients) is reported as “no interaction” and the five-years survival rate (TP53 mutated) is reported as 64.7%. For the same molecule, the five-years survival rate (normal TP53 genotype) was 81%, the “interaction with TP53 genotype” value (mutant TP53 genotype, low-risk stage III patients) was “negatively interacts” and the “interaction with TP53 genotype” value (normal p53 genotype, low risk stage III patients (N1 or IIIA and IIIB stage)) was “positively interacts”. The five-year survival (stage IIIA, TP53 mutant) was 78%, the five-year survival (stage IIIA, TP53 normal) was 91% and the five-year survival (stage IIIB cohort) was 63%. For the same molecule, the five-year survival (stage IIIB, TP53 mutant) was 60%, the five-year survival (stage IIIB, TP53 normal) was 79% and the “benefit in relation to the TP53 genotype” value (stage IIIC patients) was “no differential benefit”.
